Measured values published in patent US20230040770A1, “HETEROCYCLIC COMPOUND AND USE THEREOF” (TAKEDA PHARMACEUTICAL COMPANY LIMITED, priority 2019, published 2023).

Biological target: T1, human orexin type 2 receptor (Homo sapiens, UniProt O43614)
T1 construct: expressed in transfected cells
T1 sequence (O43614 1-444): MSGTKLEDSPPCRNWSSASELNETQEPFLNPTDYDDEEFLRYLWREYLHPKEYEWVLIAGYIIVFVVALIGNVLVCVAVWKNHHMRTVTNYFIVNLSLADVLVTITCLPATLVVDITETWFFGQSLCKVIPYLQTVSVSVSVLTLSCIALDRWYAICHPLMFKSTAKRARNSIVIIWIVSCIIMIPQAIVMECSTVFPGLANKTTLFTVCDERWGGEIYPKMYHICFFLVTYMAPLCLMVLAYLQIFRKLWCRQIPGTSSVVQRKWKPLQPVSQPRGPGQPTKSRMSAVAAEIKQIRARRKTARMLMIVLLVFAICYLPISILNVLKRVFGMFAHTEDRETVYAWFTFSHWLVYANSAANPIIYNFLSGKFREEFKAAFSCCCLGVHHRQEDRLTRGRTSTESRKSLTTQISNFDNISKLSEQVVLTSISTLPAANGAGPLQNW
Experiment: Measurement of orexin type 2 receptor agonist activity (calcium indicator fluorescence, CHO cells forcibly expressing human OX2 receptor)
Assay type: cell-based
Conditions: compound at 3 μM; 0% = DMSO, 100% = orexin A (human) 10 nM
Outline: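 Agonist response normalised between vehicle (0%) and orexin A at 10 nM final (100%), from kinetic Fluo-4 calcium signals recorded for about 2 min after compound addition. Cells: stable human OX2R CHO clone, dye-loaded 30 min at 37 °C plus 30 min at room temperature.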

| SMILES | OX2R agonist activity (3 μM, %) [%] |
| --- | --- |
| Cc1cccc(-c2cccc(C[C@H]3[C@@H](NS(=O)(=O)C4CC4)[C@@H](F)CN3C(=O)C3CCO3)c2F)c1F (stereo partly drawn) [Example 487, N-[(2S,3R,4S)-2-[(2,2′-difluoro-3′-methyl[1,1′-biphenyl]-3-yl)methyl]-4-fluoro-1-(oxetane-2-carbonyl)pyrroldiin-3-yl]cyclopropanesulfonamide] | 95 |
| CCS(=O)(=O)N[C@H]1[C@@H](F)CN(C(=O)[C@H]2CCCO2)[C@H]1Cc1cccc(-c2ccccc2)c1F [Example 413, N-{(2S,3R,4S)-4-fluoro-2-[(2-fluoro[1,1′-biphenyl]-3-yl)methyl]-1-[(2R)-oxolane-2-carbonyl]pyrrolidin-3-yl}ethanesulfonamide] | 99 |
| CS(=O)(=O)N[C@H]1[C@@H](F)CN(C(=O)C23CC(C2)C3)[C@H]1Cc1cccc(-c2cc(F)cc(F)c2)c1F [Example 374, N-{(2S,3R,4S)-1-(bicyclo[1.1.1]pentane-1-carbonyl)-4-fluoro-2-[(2,3′,5′-trifluoro[1,1′-biphenyl]-3-yl)methyl]pyrrolidin-3-yl}methanesulfonamide] | 93 |
| CCS(=O)(=O)N[C@H]1[C@@H](F)CN(C(=O)C(C)(C)O)[C@H]1Cc1cccc(-c2cccc(F)c2)c1F [Example 207, N-[(2S,3R,4S)-2-[(2,3′-difluoro[1,1′-biphenyl]-3-yl)methyl]-4-fluoro-1-(2-hydroxy-2-methylpropanoyl)pyrrolidin-3-yl]ethanesulfonamide] | 88 |
| Cc1cccc(-c2cccc(C[C@H]3[C@@H](NS(=O)(=O)C4CC4)[C@@H](F)CN3C(=O)N3CCC3)c2F)c1 [Example 543, N-{(2S,3R,4S)-1-(azetidine-1-carbonyl)-4-fluoro-2-[(2-fluoro-3′-methyl[1,1′-biphenyl]-3-yl)methyl]pyrrolidin-3-yl}cyclopropanesulfonamide] | 99 |
| Cc1cc(F)cc(-c2cccc(C[C@H]3[C@@H](NS(=O)(=O)C4CC4)C(F)(F)CN3C(=O)[C@H]3CCO3)c2F)c1 [Example 533, N-{(2S,3R)-2-[(2,3′-difluoro-5′-methyl[1,1′-biphenyl]-3-yl)methyl]-4,4-difluoro-1-[(2R)-oxetane-2-carbonyl]pyrrolidin-3-yl}cyclopropanesulfonamide] | 101 |
| CCS(=O)(=O)N[C@@H]1[C@H](Cc2cccc(-c3cc(F)cc(Cl)c3)c2F)N(C(=O)C2CC2)CC1(F)F [Example 248, N-[(2S,3R)-2-[(3′-chloro-2,5′-difluoro[1,1′-biphenyl]-3-yl)methyl]-1-(cyclopropanecarbonyl)-4,4-difluoropyrrolidin-3-yl]ethanesulfonamide] | 90 |
| CCS(=O)(=O)N[C@@H]1[C@H](Cc2cccc(-c3ccc(F)c(F)c3F)c2F)N(C(=O)C2CCO2)CC1(F)F (stereo partly drawn) [Example 470, N-{(2S,3R)-4,4-difluoro-1-(oxetane-2-carbonyl)-2-[(2,2′,3′,4′-tetrafluoro[1,1′-biphenyl]-3-yl)methyl]pyrrolidin-3-yl}ethanesulfonamide] | 103 |
| CC(C)(O)C(=O)N1C[C@H](F)[C@H](NS(C)(=O)=O)[C@@H]1Cc1cccc(-c2cccc(Cl)c2)c1F [Example 388, N-[(2S,3R,4S)-2-[(3′-chloro-2-fluoro[1,1′-biphenyl]-3-yl)methyl]-4-fluoro-1-(2-hydroxy-2-methylpropanoyl)pyrrolidin-3-yl]methanesulfonamide] | 89 |
| CCS(=O)(=O)N[C@H]1[C@@H](F)CN(C(=O)C2CCO2)[C@H]1Cc1cccc(-c2cc(C)cc(F)c2)c1F (stereo partly drawn) [Example 501, N-[(2S,3R,4S)-2-[(2,3′-difluoro-5′-methyl[1,1′-biphenyl]-3-yl)methyl]-4-fluoro-1-(oxetane-2-carbonyl)pyrrolidin-3-yl]ethanesulfonamide] | 96 |

Other lines, results leading:

| OX2R agonist activity (3 μM, %) [%] | SMILES |
| --- | --- |
| 95 | Cc1cccc(-c2cccc(C[C@H]3[C@@H](NS(=O)(=O)N(C)C)C(F)(F)CN3C(=O)C3CCO3)c2F)c1 (stereo partly drawn) [Example 432, N′-[(2S,3R)-4,4-difluoro-2-[(2-fluoro-3′-methyl[1,1′-biphenyl]-3-yl)methyl]-1-(oxetane-2-carbonyl)pyrrolidin-3-yl]-N,N-dimethylsulfuric diamide] |
| 97 | CCS(=O)(=O)N[C@@H]1[C@H](Cc2cccc(-c3cccc(OC)c3)c2F)N(C(=O)C23CC(C2)C3)CC1(F)F [Example 510, N-{(2S,3R)-1-(bicyclo[1.1.1]pentane-1-carbonyl)-4,4-difluoro-2-[(2-fluoro-3′-methoxy[1,1′-biphenyl]-3-yl)methyl]pyrrolidin-3-yl}ethanesulfonamdie] |
| 83 | CCS(=O)(=O)N[C@@H]1[C@H](Cc2cccc(-c3cccc(F)c3)c2F)N(C(=O)C2(O)CCC2)CC1(F)F [Example 273, N-[(2S,3R)-2-[(2,3′-difluoro[1,1′-biphenyl]-3-yl)methyl]-4,4-difluoro-1-(1-hydroxycyclobutane-1-carbonyl)pyrrolidin-3-yl]ethanesulfonamide] |
| 89 | CCS(=O)(=O)N[C@@H]1[C@H](Cc2cccc(-c3cccc(C(F)F)c3)c2F)N(C(=O)C2CCO2)CC1(F)F (stereo partly drawn) [Example 503, N-[(2S,3R)-2-{[3′-(difluoromethyl)-2-fluoro[1,1′-biphenyl]-3-yl]methyl}-4,4-difluoro-1-(oxetane-2-carbonyl)pyrrolidin-3-yl]ethanesulfonamide] |
| 94 | CCS(=O)(=O)N[C@@H]1[C@H](Cc2cccc(-c3cccc(F)c3)c2F)N(C(=O)N2CCC2)CC1(F)F [Example 287, N-{(2S,3R)-1-(azetidine-1-carbonyl)-2-[(2,3′-difluoro[1,1′-biphenyl]-3-yl)methyl]-4,4-difluoropyrrolidin-3-yl}ethanesulfonamide] |
| 96 | Cc1cccc(-c2cccc(C[C@H]3[C@@H](NS(=O)(=O)N(C)C)C(F)(F)CN3C(=O)N(C)C)c2F)c1 [Example 442, (2S,3R)-3-[(dimethylsulfamoyl)amino]-4,4-difluoro-2-[(2-fluoro-3′-methyl[1,1′-biphenyl]-3-yl)methyl]-N,N-dimethylpyrrolidine-1-carboxamide] |
| 95 | CCS(=O)(=O)N[C@H]1[C@@H](F)CN(C(=O)N(C)C)[C@H]1Cc1cccc(-c2cccc(F)c2)c1F [Example 210, (2S,3R,4S)-2-[(2,3′-difluoro[1,1′-biphenyl]-3-yl)methyl]-3-[(ethanesulfonyl)amino]-4-fluoro-N,N-dimethylpyrrolidine-1-carboxamide] |
| 100 | CCS(=O)(=O)N[C@@H]1[C@H](Cc2cccc(-c3cccc(C(F)F)c3)c2F)N(C(=O)C2CC(F)C2)CC1(F)F (stereo partly drawn) [Example 506, N-[(2S,3R)-2-{[3′-(difluoromethyl)-2-fluoro[1,1′-biphenyl]-3-yl]methyl}-4,4-difluoro-1-(3-fluorocyclobutane-1-carobnyl)pyrrolidin-3-yl]ethanesulfonamide] |
| 88 | CCS(=O)(=O)N[C@H]1[C@@H](F)CN(C(=O)N(C)C)[C@H]1Cc1cccc(-c2cccc(C)c2F)c1F [Example 408, (2S,3R,4S)-2-[(2,2′-difluoro-3′-methyl[1,1′-biphenyl]-3-yl)methyl]-3-[(ethanesulfonyl)amino]-4-fluoro-N,N-dimethylpyrrolidine-1-carboxamide] |
